These results are taken from patent US11319299B2, “Substituted carboxamides as inhibitors of WDR5 protein-protein binding” (PROPELLON THERAPEUTICS INC., priority 2016, dated 2022).

Structures are written as SMILES.

This assay has as its target WDR5 (Homo sapiens (Human), UniProt P61964). The experiment in a line: Surface Plasmon Resonance (SPR) assay, KD and residence time. The assay is classed as binding. As to conditions: surface plasmon resonance (SPR); read-out: WDR5 binding affinity (KD). On the technique in general: Surface plasmon resonance follows binding to a sensor surface in real time, without labels.
Take `C[C@@H]1CN(c2cc(F)c(-c3ccc(N4CCOCC4)c(F)c3)cc2NC(=O)c2cn(C)c(=O)cc2C(F)F)C[C@H](C)N1C` [Example 449, 4-(difluoromethyl)-N-[4-fluoro-5-(3-fluoro-4-morpholin-4-ylphenyl)-2-[(3R,5S)-3,4,5-trimethylpiperazin-1-yl]phenyl]-1-methyl-6-oxopyridine-3-carboxamide]: the Kd (usually the free concentration of one partner at which half of the binding sites on the other are occupied at equilibrium, for simple one-to-one binding) amounted to 9.03 nM.

As for `C[C@@H]1CN(c2cc(F)c(-c3cnc(N4CCN(C5CC5)CC4)nc3)cc2NC(=O)c2ccc(F)cc2C(F)(F)F)C[C@H](C)N1C` [Example 454, N-[5-[2-(4-cyclopropylpiperazin-1-yl)pyrimidin-5-yl]-4-fluoro-2-[(3R,5S)-3,4,5-trimethylpiperazin-1-yl]phenyl]-4-fluoro-2-(trifluoromethyl)benzamide], the dissociation constant Kd was determined as 4.05 nM. Take `C[C@@H]1CN(c2cc(F)c(C3=CCN(c4ncc(CN(C)C)cn4)C3)cc2NC(=O)c2c[nH]c(=O)cc2C(F)(F)F)C[C@H](C)N1C` [Example 457, N-[5-[1-[5-[(dimethylamino)methyl]pyrimidin-2-yl]-2,5-dihydropyrrol-3-yl]-4-fluoro-2-[(3R,5S)-3,4,5-trimethylpiperazin-1-yl]phenyl]-6-oxo-4-(trifluoromethyl)-1H-pyridine-3-carboxamide]: the equilibrium dissociation constant (Kd) was determined as 2.57 nM. In the case of `C[C@@H]1CN(c2cc(F)c(C3=CCN(c4ncc(CN5CCOCC5)cn4)C3)cc2NC(=O)c2c[nH]c(=O)cc2C(F)(F)F)C[C@H](C)N1C` [Example 458, N-[4-fluoro-5-[1-[5-(morpholin-4-ylmethyl)pyrimidin-2-yl]-2,5-dihydropyrrol-3-yl]-2-[(3R,5S)-3,4,5-trimethylpiperazin-1-yl]phenyl]-6-oxo-4-(trifluoromethyl)-1H-pyridine-3-carboxamide], the Kd was 0.474 nM. The value for `C[C@@H]1CN(c2ncc(-c3cc(NC(=O)c4cn(C)c(=O)cc4C(F)F)c(N4C[C@@H](C)N(C)[C@@H](C)C4)cc3F)cn2)CCO1` [Example 461, 4-(difluoromethyl)-N-[4-fluoro-5-[2-[(2R)-2-methylmorpholin-4-yl]pyrimidin-5-yl]-2-[(3R,5S)-3,4,5-trimethylpiperazin-1-yl]phenyl]-1-methyl-6-oxopyridine-3-carboxamide] was 4.93 nM; that for `CC(C)N1CCN(c2ncc(-c3cc(NC(=O)c4ccc(F)cc4C(F)(F)F)c(N4C[C@@H](C)N(C)[C@@H](C)C4)cc3F)cn2)CC1` [Example 466, 4-fluoro-N-[4-fluoro-5-[2-(4-propan-2-ylpiperazin-1-yl)pyrimidin-5-yl]-2-[(3R,5S)-3,4,5-trimethylpiperazin-1-yl]phenyl]-2-(trifluoromethyl)benzamide] was 2.28 nM.

On to `C[C@@H]1COCCN1c1ncc(-c2cc(NC(=O)c3c[nH]c(=O)cc3C(F)(F)F)c(N3CCN(C)[C@@H](C)C3)cc2F)cn1` [Example 468, N-[4-fluoro-2-[(3S)-3,4-dimethylpiperazin-1-yl]-5-[2-[(3R)-3-methylmorpholin-4-yl]pyrimidin-5-yl]phenyl]-6-oxo-4-(trifluoromethyl)-1H-pyridine-3-carboxamide], for which the dissociation constant (Kd) stood at 2.28 nM. As to `C[C@@H]1COCCN1c1ncc(-c2cc(NC(=O)c3c[nH]c(=O)cc3C(F)(F)F)c(N3C[C@@H](C)N(C)[C@@H](C)C3)cc2F)cn1` [Example 469, N-[4-fluoro-5-[2-[(3R)-3-methylmorpholin-4-yl]pyrimidin-5-yl]-2-[(3R,5S)-3,4,5-trimethylpiperazin-1-yl]phenyl]-6-oxo-4-(trifluoromethyl)-1H-pyridine-3-carboxamide], the Kd came to 5.64 nM. Take `C[C@@H]1CN(c2cc(F)c(-c3cnc(N4CCOCC4)nc3)cc2NC(=O)c2c[nH]c(=O)cc2C(F)(F)F)C[C@H](C)[N+]1(C)C` [Example 479, N-[4-fluoro-5-(2-morpholin-4-ylpyrimidin-5-yl)-2-[(3R,5S)-3,4,4,5-tetramethylpiperazin-4-ium-1-yl]phenyl]-6-oxo-4-(trifluoromethyl)-1H-pyridine-3-carboxamide]: the Kd is 3.54 nM. With `C[C@@H]1CN(c2cc(F)c(-c3nc(C(=O)NCC4CC4)cs3)cc2NC(=O)c2c[nH]c(=O)cc2C(F)(F)F)C[C@H](C)N1C` [Example 482, N-(cyclopropylmethyl)-2-[2-fluoro-5-[[6-oxo-4-(trifluoromethyl)-1H-pyridine-3-carbonyl]amino]-4-[(3R,5S)-3,4,5-trimethylpiperazin-1-yl]phenyl]-1,3-thiazole-4-carboxamide], the Kd is 1.75 nM.

Regarding `C[C@@H]1CN(c2cc(F)c(-c3nc(C(=O)NC4CCCCC4)cs3)cc2NC(=O)c2c[nH]c(=O)cc2C(F)(F)F)C[C@H](C)N1C` [Example 484, N-Cyclohexyl-2-[2-fluoro-5-[[6-oxo-4-(trifluoromethyl)-1H-pyridine-3-carbonyl]amino]-4-[(3R,5S)-3,4,5-trimethylpiperazin-1-yl]phenyl]-1,3-thiazole-4-carboxamide], the Kd stood at 3.07 nM. For the molecule `C[C@@H]1CN(c2cc(F)c(-c3nc(C(=O)N(C)C4CCCCC4)cs3)cc2NC(=O)c2c[nH]c(=O)cc2C(F)(F)F)C[C@H](C)N1C` [Example 485, N-cyclohexyl-2-[2-fluoro-5-[[6-oxo-4-(trifluoromethyl)-1H-pyridine-3-carbonyl]amino]-4-[(3R,5S)-3,4,5-trimethylpiperazin-1-yl]phenyl]-N-methyl-1,3-thiazole-4-carboxamide], the Kd worked out at 2.21 nM. Turning to `C[C@@H]1CN(c2cc(F)c(-c3nc(C(=O)N4CCOCC4)cs3)cc2NC(=O)c2c[nH]c(=O)cc2C(F)(F)F)C[C@H](C)N1C` [Example 486, N-[4-fluoro-5-[4-(morpholine-4-carbonyl)-1,3-thiazol-2-yl]-2-[(3R,5S)-3,4,5-trimethylpiperazin-1-yl]phenyl]-6-oxo-4-(trifluoromethyl)-1H-pyridine-3-carboxamide], the Kd came to 2.44 nM. Regarding `C[C@@H]1CN(c2cc(F)c(-c3nc(C(=O)N4CCN(C)CC4)cs3)cc2NC(=O)c2c[nH]c(=O)cc2C(F)(F)F)C[C@H](C)N1C` [Example 487, N-[4-fluoro-5-[4-(4-methylpiperazine-1-carbonyl)-1,3-thiazol-2-yl]-2-[(3R,5S)-3,4,5-trimethylpiperazin-1-yl]phenyl]-6-oxo-4-(trifluoromethyl)-1H-pyridine-3-carboxamide], the Kd came out at 2.81 nM. For `C[C@@H]1CN(c2cc(F)c(C3=CCN(C(=O)OC4(C)COC4)CC3)cc2NC(=O)c2c[nH]c(=O)cc2C(F)(F)F)C[C@H](C)N1C` [Example 488, (3-methyloxetan-3-yl) 4-[2-fluoro-5-[[6-oxo-4-(trifluoromethyl)-1H-pyridine-3-carbonyl]amino]-4-[(3R,5S)-3,4,5-trimethylpiperazin-1-yl]phenyl]-3,6-dihydro-2H-pyridine-1-carboxylate], the Kd came to 4.87 nM.

Turning to `C[C@@H]1CN(c2cc(F)c(C3=CCCN(C(=O)OC4(C)COC4)C3)cc2NC(=O)c2c[nH]c(=O)cc2C(F)(F)F)C[C@H](C)N1C` [Example 489, (3-methyloxetan-3-yl) 5-[2-fluoro-5-[[6-oxo-4-(trifluoromethyl)-1H-pyridine-3-carbonyl]amino]-4-[(3R,5S)-3,4,5-trimethylpiperazin-1-yl]phenyl]-3,6-dihydro-2H-pyridine-1-carboxylate], the Kd came to 2.74 nM.

As for `C[C@@H]1CN(c2cc(F)c(C3=CCN(C(=O)OC4(C)COC4)C3)cc2NC(=O)c2c[nH]c(=O)cc2C(F)(F)F)C[C@H](C)N1C` [Example 490, (3-methyloxetan-3-yl) 3-[2-fluoro-5-[[6-oxo-4-(trifluoromethyl)-1H-pyridine-3-carbonyl]amino]-4-[(3R,5S)-3,4,5-trimethylpiperazin-1-yl]phenyl]-2,5-dihydropyrrole-1-carboxylate], the Kd worked out at 3.24 nM. With `C[C@@H]1CN(c2cc(F)c(-c3ccc(CN4CCOCC4)s3)cc2NC(=O)c2c[nH]c(=O)cc2C(F)(F)F)C[C@H](C)N1C` [Example 491, N-[4-fluoro-5-[5-(morpholin-4-ylmethyl)thiophen-2-yl]-2-[(3R,5S)-3,4,5-trimethylpiperazin-1-yl]phenyl]-6-oxo-4-(trifluoromethyl)-1H-pyridine-3-carboxamide], the Kd was 3.59 nM. In the case of `C[C@@H]1CN(c2cc(F)c(-c3cccs3)cc2NC(=O)c2c[nH]c(=O)cc2C(F)(F)F)C[C@H](C)N1C` [Example 492, N-[4-fluoro-2-[(3R,5S)-3,4,5-trimethylpiperazin-1-yl]-5-thiophen-2-ylphenyl]-6-oxo-4-(trifluoromethyl)-1H-pyridine-3-carboxamide], the dissociation constant Kd was found to be 3.35 nM.

With `C[C@@H]1CN(c2cc(F)c(-c3ccsc3)cc2NC(=O)c2c[nH]c(=O)cc2C(F)(F)F)C[C@H](C)N1C` [Example 493, N-[4-fluoro-2-[(3R,5S)-3,4,5-trimethylpiperazin-1-yl]-5-thiophen-3-ylphenyl]-6-oxo-4-(trifluoromethyl)-1H-pyridine-3-carboxamide], the Kd worked out at 2.86 nM.

As for `C[C@@H]1CN(c2cc(F)c(-c3csc(CN4CCOCC4)c3)cc2NC(=O)c2c[nH]c(=O)cc2C(F)(F)F)C[C@H](C)N1C` [Example 494, N-[4-fluoro-5-[5-(morpholin-4-ylmethyl)thiophen-3-yl]-2-[(3R,5S)-3,4,5-trimethylpiperazin-1-yl]phenyl]-6-oxo-4-(trifluoromethyl)-1H-pyridine-3-carboxamide], the equilibrium dissociation constant (Kd) was 3.01 nM.

Take `C[C@@H]1CN(c2cc(F)c(-c3ncc(C(=O)NCC4CC4)s3)cc2NC(=O)c2c[nH]c(=O)cc2C(F)(F)F)C[C@H](C)N1C` [Example 496, N-(cyclopropylmethyl)-2-[2-fluoro-5-[[6-oxo-4-(trifluoromethyl)-1H-pyridine-3-carbonyl]amino]-4-[(3R,5S)-3,4,5-trimethylpiperazin-1-yl]phenyl]-1,3-thiazole-5-carboxamide]: the Kd turned out to be 3.03 nM. The value for `C[C@@H]1CN(c2cc(F)c(-c3ncc(C(=O)N(C)CC4CC4)s3)cc2NC(=O)c2c[nH]c(=O)cc2C(F)(F)F)C[C@H](C)N1C` [Example 497, N-(cyclopropylmethyl)-2-[2-fluoro-5-[[6-oxo-4-(trifluoromethyl)-1H-pyridine-3-carbonyl]amino]-4-[(3R,5S)-3,4,5-trimethylpiperazin-1-yl]phenyl]-N-methyl-1,3-thiazole-5-carboxamide] was 2.59 nM.
